Measurements reported in PubChem BioAssay (NCI).
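Exposure lasted 48 hours, with cells grown in 96-well plates and compounds tested at five concentrations. GI50 marks 50% less growth. Definition used: TGI = concentration required for complete inhibition of growth.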

Columns and labels:
Assay in all cases: NCI anticancer screen, dose series, 48 h
786-0 renal = tested on: 786-0 renal
A498 renal = tested on: A498 renal
A549 NSCLC = tested on: A549 NSCLC
ACHN renal = tested on: ACHN renal
CAKI-1 renal = tested on: CAKI-1 renal
COLO 205 colon = tested on: COLO 205 colon
DU-145 prostate = tested on: DU-145 prostate
EKVX NSCLC = tested on: EKVX NSCLC
HCC-2998 colon = tested on: HCC-2998 colon
HCT-15 colon = tested on: HCT-15 colon
HOP-62 NSCLC = tested on: HOP-62 NSCLC
HOP-92 NSCLC = tested on: HOP-92 NSCLC
HT29 colon = tested on: HT29 colon
IGROV1 ovarian = tested on: IGROV1 ovarian
K-562 leukemia = tested on: K-562 leukemia
KM12 colon = tested on: KM12 colon
LOX IMVI melanoma = tested on: LOX IMVI melanoma
M14 melanoma = tested on: M14 melanoma
MALME-3M melanoma = tested on: MALME-3M melanoma
MDA-MB-231 breast = tested on: MDA-MB-231 breast
MDA-MB-435 = tested on: MDA-MB-435
NCI-H226 lung = tested on: NCI-H226 lung
NCI/ADR-RES ovarian = tested on: NCI/ADR-RES ovarian
OVCAR-3 ovarian = tested on: OVCAR-3 ovarian
OVCAR-5 ovarian = tested on: OVCAR-5 ovarian
OVCAR-8 ovarian = tested on: OVCAR-8 ovarian
PC-3 prostate = tested on: PC-3 prostate
RPMI-8226 leukemia = tested on: RPMI-8226 leukemia
SF-295 CNS = tested on: SF-295 CNS
SF-539 CNS = tested on: SF-539 CNS
SK-MEL-2 melanoma = tested on: SK-MEL-2 melanoma
SK-MEL-28 melanoma = tested on: SK-MEL-28 melanoma
SK-MEL-5 melanoma = tested on: SK-MEL-5 melanoma
SK-OV-3 ovarian = tested on: SK-OV-3 ovarian
SN12C renal = tested on: SN12C renal
SNB-19 CNS = tested on: SNB-19 CNS
SNB-75 CNS = tested on: SNB-75 CNS
SR leukemia = tested on: SR leukemia
T-47D breast = tested on: T-47D breast
TK-10 renal = tested on: TK-10 renal
U251 CNS = tested on: U251 CNS
UACC-257 melanoma = tested on: UACC-257 melanoma
UACC-62 melanoma = tested on: UACC-62 melanoma
UO-31 renal = tested on: UO-31 renal

Cc1ccc2nc(CN(CCN(Cc3nc4ccc(C)cc4[nH]3)Cc3nc4ccc(C)cc4[nH]3)Cc3nc4ccc(C)cc4[nH]3)[nH]c2c1
GI50 (786-0 renal): 1750 nM | TGI (786-0 renal): 3150 nM | GI50 (A498 renal): 1710 nM | TGI (A498 renal): 3140 nM | GI50 (A549 NSCLC): 1860 nM | TGI (A549 NSCLC): 3540 nM | GI50 (ACHN renal): 1600 nM | TGI (ACHN renal): 2940 nM | GI50 (CAKI-1 renal): 1260 nM | TGI (CAKI-1 renal): 2510 nM | GI50 (COLO 205 colon): 1700 nM | TGI (COLO 205 colon): 3150 nM | GI50 (DU-145 prostate): 1790 nM | TGI (DU-145 prostate): 3180 nM | GI50 (EKVX NSCLC): 1440 nM | TGI (EKVX NSCLC): 2750 nM | GI50 (HCC-2998 colon): 1740 nM | TGI (HCC-2998 colon): 3180 nM | GI50 (HCT-15 colon): 1620 nM | TGI (HCT-15 colon): 3010 nM | GI50 (HOP-62 NSCLC): 1830 nM | TGI (HOP-62 NSCLC): 3240 nM | GI50 (HOP-92 NSCLC): 1450 nM | TGI (HOP-92 NSCLC): 2890 nM | GI50 (HT29 colon): 1770 nM | TGI (HT29 colon): 3200 nM | GI50 (IGROV1 ovarian): 1820 nM | TGI (IGROV1 ovarian): 3350 nM | GI50 (K-562 leukemia): 1720 nM | TGI (K-562 leukemia): 3760 nM | GI50 (KM12 colon): 1770 nM | TGI (KM12 colon): 3180 nM | GI50 (LOX IMVI melanoma): 1660 nM | TGI (LOX IMVI melanoma): 3030 nM | GI50 (M14 melanoma): 1650 nM | TGI (M14 melanoma): 3100 nM | GI50 (MALME-3M melanoma): 1470 nM | TGI (MALME-3M melanoma): 2890 nM | GI50 (MDA-MB-231 breast): 1880 nM | TGI (MDA-MB-231 breast): 3300 nM | GI50 (MDA-MB-435): 1620 nM | TGI (MDA-MB-435): 2980 nM | GI50 (NCI-H226 lung): 1820 nM | TGI (NCI-H226 lung): 3210 nM | GI50 (NCI/ADR-RES ovarian): 1890 nM | TGI (NCI/ADR-RES ovarian): 3360 nM | GI50 (OVCAR-3 ovarian): 1840 nM | TGI (OVCAR-3 ovarian): 3310 nM | GI50 (OVCAR-5 ovarian): 1630 nM | TGI (OVCAR-5 ovarian): 3000 nM | GI50 (OVCAR-8 ovarian): 1760 nM | TGI (OVCAR-8 ovarian): 3220 nM | GI50 (PC-3 prostate): 1850 nM | TGI (PC-3 prostate): 3510 nM | GI50 (RPMI-8226 leukemia): 1300 nM | TGI (RPMI-8226 leukemia): 2950 nM | GI50 (SF-295 CNS): 1550 nM | TGI (SF-295 CNS): 2890 nM | GI50 (SF-539 CNS): 1770 nM | TGI (SF-539 CNS): 3160 nM | GI50 (SK-MEL-2 melanoma): 2160 nM | TGI (SK-MEL-2 melanoma): 3850 nM | GI50 (SK-MEL-28 melanoma): 1750 nM | TGI (SK-MEL-28 melanoma): 3150 nM | GI50 (SK-MEL-5 melanoma): 1690 nM | TGI (SK-MEL-5 melanoma): 3060 nM | GI50 (SK-OV-3 ovarian): 1880 nM | TGI (SK-OV-3 ovarian): 3350 nM | GI50 (SN12C renal): 1860 nM | TGI (SN12C renal): 3260 nM | GI50 (SNB-19 CNS): 1700 nM | TGI (SNB-19 CNS): 3070 nM | GI50 (SNB-75 CNS): 1320 nM | TGI (SNB-75 CNS): 2600 nM | GI50 (SR leukemia): 1490 nM | TGI (SR leukemia): 3220 nM | GI50 (T-47D breast): 1710 nM | TGI (T-47D breast): 3120 nM | GI50 (TK-10 renal): 1480 nM | TGI (TK-10 renal): 2950 nM | GI50 (U251 CNS): 1610 nM | TGI (U251 CNS): 2970 nM | GI50 (UACC-257 melanoma): 1810 nM | TGI (UACC-257 melanoma): 3240 nM | GI50 (UACC-62 melanoma): 1720 nM | TGI (UACC-62 melanoma): 3100 nM | GI50 (UO-31 renal): 1710 nM | TGI (UO-31 renal): 3140 nM
